# Assay results: PMC3026871 (Cancer chemotherapy and pharmacology, 2010)
# Assays:
# [1] = Plasma pharmacokinetics in patients; conditions: for concentration at 6 h: Cmin, 6 hours after the second dose; for AUC(0-t): AUC0–24, Mean (SD)
# [2] = ref Data on file, Millennium; cited from earlier work
# [3] = system: alpha-1 subunit of the GABA-A receptor; conditions: ref Data on file, Millennium; cited from earlier work
# [4] = system: patients with advanced solid tumors; assay: Phase 1 safety: drug-related adverse events; assay type: in vivo
# [5] = system: patients with advanced solid tumors; assay: Clinical response; assay type: in vivo, human; conditions: RECIST
# human tumor xenografts = conditions: cited from earlier work
# dogs = conditions: the most sensitive species; cited from earlier work
# [6] = ref Data on file, Millennium, cited from earlier work
# [7] = human, plasma, oral, 60 mg, Mean (SD), QID/M-7D 60 mg, Day 7, Dose 2, steady state, n=6
# [8] = human, plasma, oral, 60 mg, Mean (SD), QID/M-14D 60 mg, Day 14, Dose 2, steady state, n=3
# [9] = human, plasma, oral, 60 mg, QID/M-21D 60 mg, Day 21, Dose 2, steady state, individual data, n=1
# [10] = human, plasma, oral, 70 mg, Mean (SD), QID/M-7D 70 mg, Day 7, Dose 2, steady state, n=3
# [11] = human, plasma, oral, 80 mg, Mean (SD), QID/M-7D 80 mg, Day 7, Dose 2, steady state, n=3
smiles,measurement,setting,value
O=C(O)c1ccc(Nc2ncc3c(n2)-c2ccc(Cl)cc2C(c2c(F)cccc2F)=NC3)cc1 [MLN8054],Cmax,[1]; [7],1950 nM
same,Cmax,[1]; [8],2640 nM
same,Cmax,[1]; [9],1500 nM
same,concentration at 6 h,[1]; [7],1090 nM
same,concentration at 6 h,[1]; [8],2070 nM
same,concentration at 6 h,[1]; [9],945 nM
same,Tmax,"[1]; human, plasma, oral, 60 mg, Tmax, Mean (SD), QID/M-7D 60 mg, Day 7, Dose 2, steady state, n=6",1.3 h
same,Tmax,"[1]; human, plasma, oral, 60 mg, Tmax, Mean (SD), QID/M-14D 60 mg, Day 14, Dose 2, steady state, n=3",2.3 h
same,Tmax,"[1]; human, plasma, oral, 60 mg, Tmax, QID/M-21D 60 mg, Day 21, Dose 2, steady state, individual data, n=1",1 h
same,AUC(0-t),"[1]; human, plasma, oral, 70 mg, QID/M-7D 70 mg, Day 7, Dose 2, steady state, n=3",15.2 µM·h
same,Cmax,[1]; [10],3280 nM
same,concentration at 6 h,[1]; [10],1950 nM
same,Tmax,"[1]; human, plasma, oral, 70 mg, Tmax, Mean (SD), QID/M-7D 70 mg, Day 7, Dose 2, steady state, n=3",1.5 h
same,concentration at 7 days,"[1]; human, plasma, oral, 70 mg, mean plasma MLN8054 concentration maintained over the course of treatment, QID/M-7D 70 mg cohort",2000 nM
same,AUC(0-t),"[1]; human, plasma, oral, 80 mg, QID/M-7D 80 mg, Day 7, Dose 2, steady state, n=3",10.1 µM·h
same,Cmax,[1]; [11],2130 nM
same,concentration at 6 h,[1]; [11],1670 nM
same,Tmax,"[1]; human, plasma, oral, 80 mg, Tmax, Mean (SD), QID/M-7D 80 mg, Day 7, Dose 2, steady state, n=3",1 h
same,half-life,"[1]; human, plasma, po",30 to 40 h
same,Tmax,"[1]; human, plasma, po, Tmax (range across cohorts), patients, across cohorts",1 to 4 h
same,patients with trough MLN8054 concentrations >2000 nM,[1]; of the 48 patients with sufficient data to estimate pharmacokinetic parameters,7 patients
same,dose-limiting toxicities (DLTs) in preclinical toxicology studies,[2],myelosuppression and gastrointestinal toxicity
same,binding to the alpha-1 subunit of the GABA-A receptor,[3],high-affinity binding
same,"Any drug-related adverse event, Any Grade","[4]; human, in vivo",55 (90)
same,"Any drug-related adverse event, Grade 3","[4]; human, in vivo",13 (21)
same,"Drug-related Abnormal coordination, Any Grade","[4]; human, in vivo",5 (8)
same,"Drug-related Abnormal coordination, Grade 3","[4]; human, in vivo",1 (2)
same,"Drug-related Anorexia, Any Grade","[4]; human, in vivo",8 (13)
same,"Drug-related Anorexia, Grade 3","[4]; human, in vivo",0 (0)
same,"Drug-related Asthenia, Any Grade","[4]; human, in vivo",6 (10)
same,"Drug-related Asthenia, Grade 3","[4]; human, in vivo",1 (2)
same,"Drug-related Confusion, Any Grade","[4]; human, in vivo",11 (18)
same,"Drug-related Confusion, Grade 3","[4]; human, in vivo",4 (7)
same,"Drug-related Dizziness, Any Grade","[4]; human, in vivo",7 (11)
same,"Drug-related Dizziness, Grade 3","[4]; human, in vivo",1 (2)
same,"Drug-related Fatigue, Any Grade","[4]; human, in vivo",15 (25)
same,"Drug-related Fatigue, Grade 3","[4]; human, in vivo",1 (2)
same,"Drug-related Hallucination, Any Grade","[4]; human, in vivo",1 (2)
same,"Drug-related Hallucination, Grade 3","[4]; human, in vivo",1 (2)
same,"Drug-related Hyperbilirubinemia, Any Grade","[4]; human, in vivo",3 (5)
same,"Drug-related Hyperbilirubinemia, Grade 3","[4]; human, in vivo",1 (2)
same,"Drug-related Hyperglycemia, Any Grade","[4]; human, in vivo",5 (8)
same,"Drug-related Hyperglycemia, Grade 3","[4]; human, in vivo",1 (2)
same,"Drug-related Increased blood alkaline phosphatase, Any Grade","[4]; human, in vivo",4 (7)
same,"Drug-related Increased blood alkaline phosphatase, Grade 3","[4]; human, in vivo",1 (2)
same,"Drug-related Muscular weakness, Any Grade","[4]; human, in vivo",5 (8)
same,"Drug-related Muscular weakness, Grade 3","[4]; human, in vivo",1 (2)
same,"Drug-related Nausea, Any Grade","[4]; human, in vivo",10 (16)
same,"Drug-related Nausea, Grade 3","[4]; human, in vivo",0 (0)
same,"Drug-related Peripheral motor neuropathy, Any Grade","[4]; human, in vivo",1 (2)
same,"Drug-related Peripheral motor neuropathy, Grade 3","[4]; human, in vivo",1 (2)
same,"Drug-related Somnolence, Any Grade","[4]; human, in vivo",47 (77)
same,"Drug-related Somnolence, Grade 3","[4]; human, in vivo",11(18)
same,"Drug-related Vomiting, Any Grade","[4]; human, in vivo",6 (10)
same,"Drug-related Vomiting, Grade 3","[4]; human, in vivo",0 (0)
same,drug-related grade 4 or 5 AE,"[4]; human, in vivo",no patient had a drug-related grade 4 or 5 AE
same,grade ≥ 3 mucositis or myelosuppression,"[4]; human, in vivo",No dose studied was associated with grade ≥ 3 mucositis or myelosuppression
same,patients who died within 21 days of the last dose,"[4]; nine patients, none of the deaths considered drug-related",15%
same,patients with stable disease for greater than 6 cycles,[5]; 3 patients,5%
same,complete or partial responses,"[5]; 5–80 mg per day for 7, 14 or 21 days",No complete or partial responses were seen
same,patients with stable disease for at least 4 cycles,"[5]; nine patients, all cohorts",15%
same,antitumor activity in xenograft models,human tumor xenografts,"antitumor activity in human tumor xenografts including colon, prostate, and lung cancer models"
same,plasma concentration whose maintenance is required for efficacy,"human tumor xenografts; maintained for 8–12 hours per day, human tumor xenografts grown in mice",~ 2000 nM
same,highest non-severely toxic dose,dogs,20 mg/m^2/day
same,major phase 1 biotransformation pathway,[6]; human liver S9 fractions,Hydroxylation of the azepine moiety
same,predominant mechanism of biotransformation,[6]; human liver S9 fractions,Glucuronidation of the carboxylate moiety of MLN8054 to an acyl glucuronide
same,enzymes mediating biotransformation,[6],"Glucuronidation was mediated by UGT1 and UGT2 and hydroxylation by CYP1A2, 2C9, 2C19, 2D6, and 3A4"
